The record followed here is PubChem BioAssay (NCI).

Among the test systems are COLO 205 colon; EKVX NSCLC; SF-539 CNS; SK-MEL-5 melanoma; SN12C renal; SNB-75 CNS; SW-620 colon; TK-10 renal; U251 CNS; UO-31 renal.
What all share (test): NCI-60 cell line screen, 48 h

Several values for one entry are separate records, joined by “and”; a condition that tells them apart may be missing. Equal values may be shown once.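 Method: 48-hour compound exposure of cells in 96-well plates, five concentrations, linear interpolation of endpoints. GI50 = concentration required for 50% inhibition of growth. TGI: total growth inhibition.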 A value given as a limit tells only on which side of the number the result lay.

With `Cc1ccc(-c2c3c(nn2-c2ccc(S(N)(=O)=O)cc2)-c2ccccc2C3)cc1`, the GI50 in the assay on COLO 205 colon was 23 µM; with EKVX NSCLC, 19.5 µM; in the assay on SF-539 CNS, 18.3 µM; with SK-MEL-5 melanoma, 1.21 µM; in the assay on SN12C renal, 16.9 µM; in the assay on SNB-75 CNS it was 17.5 µM. For the same compound, the GI50 was 4.4 µM with SW-620 colon, 19.2 µM in the assay on TK-10 renal, 19 µM with U251 CNS and 6.52 µM in the assay on UO-31 renal. Further, the TGI with COLO 205 colon was determined as 94.9 µM; with EKVX NSCLC, 51.7 µM; with SF-539 CNS it was 33.3 µM; with SK-MEL-5 melanoma, 5.76 µM; in the assay with SN12C renal, 36.9 µM; in the assay on SNB-75 CNS it was 33.8 µM. Also, the TGI in the assay on SW-620 colon is 17 µM; with TK-10 renal, 38.1 µM; in the assay with U251 CNS, 34.7 µM; in the assay on UO-31 renal, 21.8 µM.
Turning to `CC1=C(/C=C/C(C)=C/C=C/C(C)=C/C=N/NC(=S)NC(=S)N/N=C/C=C(C)/C=C/C=C(C)/C=C/C2=C(C)CCCC2(C)C)C(C)(C)CCC1`, the GI50 was 1.46 µM and 0.903 µM with COLO 205 colon; 3.97 µM and 1.66 µM in the assay with EKVX NSCLC; 1.13 µM and 0.994 µM in the assay with SF-539 CNS; 1.55 µM and 1.56 µM with SK-MEL-5 melanoma; 1.56 µM and 1.07 µM with SN12C renal; 2.06 µM and 1.16 µM in the assay with SNB-75 CNS. Besides, the GI50 with SW-620 colon was 1.44 µM and 0.86 µM; with TK-10 renal it was 8.6 µM and 2.2 µM; with U251 CNS it was 2.17 µM and 1.58 µM; in the assay on UO-31 renal, 1.84 µM and 1.52 µM. In addition, the TGI in the assay on COLO 205 colon was 5.14 µM and 1.71 µM; in the assay with EKVX NSCLC, 11.3 µM and 7.77 µM; in the assay on SF-539 CNS it was 2.85 µM and 2.03 µM; in the assay on SK-MEL-5 melanoma, 5.03 µM and 6.03 µM; in the assay on SN12C renal, 6.34 µM and 3.32 µM; with SNB-75 CNS, 6.75 µM and 3.28 µM. Further, the TGI was 5.42 µM and 1.74 µM in the assay with SW-620 colon; 16.1 µM and 7.54 µM with TK-10 renal; 7.18 µM and 4.62 µM in the assay with U251 CNS; 8.94 µM and 7.32 µM in the assay with UO-31 renal.
Consider `COc1ccccc1C1=C(Nc2ccccc2)C(=O)NC1=O`, for which the GI50 in the assay on COLO 205 colon was greater than 18.9 µM; in the assay on EKVX NSCLC, greater than 25 µM; with SF-539 CNS, greater than 25 µM; in the assay on SK-MEL-5 melanoma, greater than 25 µM; in the assay on SN12C renal, greater than 25 µM; in the assay with SNB-75 CNS it was greater than 18.1 µM. Besides, the GI50 in the assay with SW-620 colon, in the assay on TK-10 renal, in the assay with U251 CNS and in the assay with UO-31 renal was greater than 25 µM each time. Besides, the TGI in the assay on COLO 205 colon, in the assay with EKVX NSCLC, with SF-539 CNS, in the assay on SK-MEL-5 melanoma, with SN12C renal and with SNB-75 CNS was greater than 25 µM in each case. Further, the TGI with SW-620 colon, in the assay on TK-10 renal, in the assay on U251 CNS and in the assay on UO-31 renal was greater than 25 µM throughout.
As for `CCCCCCNC(=O)Oc1ccc(/C(=C(/C)Cc2ccc(OC)cc2)c2ccc(OCCCN(C)C)cc2)cc1`, the GI50 in the assay on COLO 205 colon was 14.6 µM; in the assay with EKVX NSCLC it was 13.2 µM; in the assay with SF-539 CNS, 16.2 µM; in the assay with SK-MEL-5 melanoma, 16.4 µM; in the assay with SN12C renal it was 14.7 µM; in the assay on SNB-75 CNS, 12.6 µM. Also, the GI50 in the assay on SW-620 colon is 16.4 µM; in the assay on TK-10 renal, 17.2 µM; with U251 CNS, 13 µM; in the assay on UO-31 renal it was 10.9 µM. Also, the TGI in the assay on COLO 205 colon was 29.7 µM; with EKVX NSCLC, 27.5 µM; with SF-539 CNS, 30.3 µM; with SK-MEL-5 melanoma it was 30.1 µM; with SN12C renal it was 28.3 µM; in the assay on SNB-75 CNS, 25.6 µM. Besides, the TGI in the assay on SW-620 colon came to 31.2 µM; with TK-10 renal it was 31.6 µM; with U251 CNS, 26.5 µM; with UO-31 renal, 23.2 µM.
With `COC(=O)C1C=CCON2CCc3c(n(C)c4ccccc34)C12` (stereo not given), the TGI in the assay with COLO 205 colon, in the assay with EKVX NSCLC, in the assay on SF-539 CNS, in the assay with SK-MEL-5 melanoma, in the assay with SN12C renal and in the assay on SNB-75 CNS was greater than 100 µM each time. The TGI in the assay with SW-620 colon, in the assay with TK-10 renal, in the assay on U251 CNS and in the assay with UO-31 renal was greater than 100 µM each time.
In the case of `O=c1cc(-c2c[nH]c3ccccc23)[nH]c2cc3c(cc12)OCO3`, the TGI with COLO 205 colon was greater than 100 µM; in the assay with EKVX NSCLC it was greater than 100 µM; with SF-539 CNS, greater than 100 µM; in the assay with SK-MEL-5 melanoma, greater than 100 µM; in the assay on SN12C renal, greater than 100 µM; in the assay on SNB-75 CNS, 72.6 µM. The TGI in the assay with SW-620 colon, in the assay with TK-10 renal, with U251 CNS and in the assay with UO-31 renal was greater than 100 µM in each case.
For the compound `CC(=O)OC1=CC2=CC[C@H]3[C@@H]4CCC(=O)[C@@]4(C)CC(=O)[C@]3(S)[C@@]2(C)CC1`, the TGI was greater than 100 µM in the assay on COLO 205 colon; greater than 100 µM in the assay with EKVX NSCLC; 43.1 µM in the assay with SF-539 CNS; greater than 100 µM with SK-MEL-5 melanoma; greater than 100 µM in the assay on SN12C renal; greater than 100 µM in the assay on SNB-75 CNS. Further, the TGI is greater than 100 µM in the assay with SW-620 colon, 85.1 µM in the assay on TK-10 renal, greater than 100 µM in the assay on U251 CNS and greater than 100 µM in the assay on UO-31 renal.
As to `CN(COC(=O)c1ccccc1)c1nc(N(C)COC(=O)c2ccccc2)nc(N(C)COC(=O)c2ccccc2)n1`, the TGI in the assay on COLO 205 colon is greater than 100 µM; in the assay on EKVX NSCLC, greater than 100 µM; in the assay on SF-539 CNS, 38.9 µM; in the assay with SK-MEL-5 melanoma, greater than 100 µM; in the assay with SN12C renal, greater than 100 µM; with SNB-75 CNS it was greater than 100 µM. The TGI in the assay with SW-620 colon was greater than 100 µM; in the assay on TK-10 renal, 59.2 µM; in the assay with U251 CNS it was greater than 83.7 µM; in the assay with UO-31 renal, greater than 100 µM.
`Cc1ccc(NC(=O)C2C(=O)N(c3ccc(C)c(C)c3)C(=O)/C2=N\NC(N)=O)cc1C` (stereo not given): the TGI in the assay on COLO 205 colon, with EKVX NSCLC, with SF-539 CNS, in the assay on SK-MEL-5 melanoma, in the assay with SN12C renal and in the assay with SNB-75 CNS was greater than 100 µM each time. The TGI in the assay with SW-620 colon, with TK-10 renal, in the assay with U251 CNS and in the assay on UO-31 renal was greater than 100 µM throughout.
As to `S=C(Nc1ccc(N=Nc2ccccc2)cc1)SCc1ccccc1`, the TGI amounted to 42.1 µM in the assay on COLO 205 colon; 48.6 µM with EKVX NSCLC; 34.5 µM in the assay on SF-539 CNS; 29.6 µM in the assay with SK-MEL-5 melanoma; 29.2 µM in the assay on SN12C renal; 44.2 µM in the assay with SNB-75 CNS. The TGI in the assay on SW-620 colon turned out to be 44.5 µM; in the assay with TK-10 renal, 25.5 µM; in the assay with U251 CNS it was 29.7 µM; in the assay with UO-31 renal it was 34.9 µM.
